Reference: patent US4294841A, “Derivatives of 1-phenyl 3-(4-piperidyl) 1-propanone usable as drugs” (Pharmindustrie, priority 1978, dated 1981)
pIC50, pKi: −log10 of the molar value. Where two headings read alike, the source gives them in different places.

Key:
[1] = test system: uptake of noradrenaline (NA); test: inhibition test of the uptake of noradrenaline by synaptosomes of the rat brain (hypothalamus); format: biochemical; conditions: read-out: I50 NA (hypothalamus)
From the text: (§1) The results are expressed by a 50% inhibitory dose (I50) which represents the dose of product, in micromoles per liter, diminishing by 50% the uptake of the neuromediator considered in the specific regions (hypothalamus, medulla+pons) where the corresponding neurons predominate.

[2] = test system: uptake of serotonin (5-hydroxytryptamine, 5HT); test: inhibition test of the uptake of serotonin by synaptosomes of the rat brain (medulla + pons); format: biochemical; conditions: read-out: I50 5HT (medulla + pons)
From the text: as §1

[3] = biological target: receptors for benzodiazepines in the brain membranes (3H-diazepam binding site); test: displacement of 3H-diazepam from its binding sites (method of H. Mohler et al.); set-up: species or system rat; conditions: for pKi: calculated from I50, read-out: Ki
From the text: The anxiolytic activity of the benzodiazepines is well known. The presence of specific receptors for benzodiazepines in the brain membranes of the rat has also been well established (Squires et al. Nature 266, 732, (1977)) and a good correlation exists between the degree of affinity of benzodiazepines for the receiving binding sites and the pharmacodynamic effects observed in the animal and in man.
The results of Table II have been obtained by testing the products according to the method of H. Mohler et al., Life Sciences 20, 2101 (1977).

[4] = acute toxicity in the mouse per os; set-up: species or system Charles River); conditions: in vivo, po, male CD1 mouse, 3 days of observation
From the text: The acute toxicities of the compounds of formula (I) have been determined on the male mouse CD1 (Charles River) per os. The LD50 have been calculated, after 3 days of observation, by the cumulative method of J. J. Reed and H. Muench (Amer. J. Hyg. 27, 493, (1938)).

[5] = test system: ventricular arhythmias caused by aconitine; test: antiarhythmic activity, aconitine test in rats; format: in vivo; conditions: Rattus norvegicus, iv, read-out: ED50 (i.v.)
Protocol: The principle of the technique rests on the induction time of ventricular arhythmias caused by aconitine which is slowly perfused in rats. An antiarhythmic substance retards the occurrence of arhythmias and this delay is proportional to the activity of the molecule.
Groups of five male rats are used. An individual anaesthesia is realized (10% urethane: 1 g/kg/ip) to allow a catheterization of the vein of the penis. The electrocardiogram is recorded. At time T=0 the substance investigated is injected in the form of an aqueous solution, at a rate of 2.5 ml of solution per kg in 30 seconds. At time T=90 seconds, that is 1 minute after the end of the injection, aconitine is perfused at a rate of 20 μg per minute until the appearance of supra-ventricular systoles. The time of perfusion of the aconitine is noted.
The results are expressed by an ED50, which is the dose in mg/kg increasing by 50% the perfusion time of aconitine in comparison with the perfusion time of aconitine for the control animals.

Structure (SMILES)	pIC50 [1]	pIC50 [2]	pKi [3]	LD50 at 72 h [4] [mg/kg]	ED50 [5] [mg/kg]	Ki ([3]; calculated from I50)
COc1ccc(CCCC2CCNCC2)cc1 [Example 6, 4-[3-(4-Methoxyphenyl) 1-propyl]piperidine]	5.66	7.70	4.71	400		
Fc1ccc(CCCC2CCNCC2)cc1 [Example 7, 4-[3-(4-Fluorophenyl)1-propyl]piperidine]	5.52	8.00	4.35	225		
Clc1ccc(CCCC2CCNCC2)cc1 [Example 8, 4-[3-(4-Chlorophenyl)1-propyl]piperidine]	6.05	7.05	4.44	235		
Clc1ccc(CCCC2CCNCC2)cc1Cl [Example 9, 4-[3-(3,4-dichlorophenyl)1-propyl]piperidine]	5.89	6.74		600		
Cc1ccc(CCCC2CCNCC2)cc1 [Example 10, 4-[3-(4-Methylphenyl)1-propyl]piperidine]	6.52	6.80	4.38	400		
c1ccc(CCCC2CCNCC2)cc1 [Example 16, 4-[3-(phenyl)propyl]piperidine]	6.62	8.70		200	2.5	
Nc1ccc(CCCC2CCNCC2)cc1 [Example 17, 4-[3-(4-Aminophenyl)propyl]piperidine]			4.44			
COc1ccc(C(=O)CCC2CCNCC2)cc1 [Example 19, 1-(4-methoxyphenyl) 3-(4-piperidyl) 1-propanone]			5.19	200		
Oc1ccccc1CCCC1CCNCC1 [Example 20, 2-[3-(4-Piperidyl)propyl]phenol]			4.54		1.2	
COc1ccc(C(O)CCC2CCNCC2)cc1 (stereo not shown) [Example 22, 1-(4-methoxyphenyl) 3-(4-piperidyl) 1-propanol]			4.49	800		
CN(C)CCCN1c2ccccc2CCc2ccccc21 [Imipramine, reference compound]	6.30	6.92				inactive
C=C[C@H]1C[N@@]2CC[C@H]1C[C@@H]2[C@@H](O)c1ccnc2ccc(OC)cc12 [Quinidine, reference compound]					4	
